The target of test [1] is T1, DR4 (DRB1*0401) molecules (Homo sapiens, UniProt P01903+P01911, A100K/A169T/F76Y/I96L/K127E/L162R/M171V/N62H/P40V/Q125Y/R42H/S133A/S149N/S66Y/V115G/V209L/W38E).
T1 construct: molecules were purified from the homozygous EBV-transformed human B lymphoblastoid cell lines Huly138IC2 and BM92 using the mAb; endogenous in cells
Kind of test: Peptide HLA-DR binding assay (semi-quantitative competition binding). The following applies: for IC50: Table IIIA, competition with biotinylated marker peptide HA 309 Y→F, pH5.0, 44 hr RT. The method, then:
DR4 (DRB1*0401) and DR4 (DRB1*0404) molecules were purified from the homozygous EBV-transformed human B lymphoblastoid cell lines Huly138IC2 and BM92 using the mAb t243, directed against a monomorphic determinant on the DR-complex (Lampson, L. A and R. Levy (1980), J. Immunol. 125:293 299).
The peptide binding studies were performed using a semi-quantitative competition binding assay (Joosten et al 1994, Int. Immunol. 6, 751). Briefly, purified HLA-DR molecules (30 nM DR4(DRB1*0401) or 15 nM DR4 (DRB1*0404) were incubated at pH5.0 with 50 nM biotinylated marker peptide (HA 309y→F) and a concentration range of competitor peptide in a final volume of 25 μl binding buffer (PBS containing 0.01% […], 0.05% NP-40, 5% DMSO, 1 mM AEBSF, 1 mM N-ethyl maleimide, 8 mM EDTA and 10 μm pepstatin A). After 44 hr of incubation at RT, HLA DR bound marker peptide was separated from free marker peptide using a 96 well vacuum dotblot apparatus (Hybri. dot, BRL) and a nitrocellulose membrane (Hybond ECL, Amersham, UK). The nitrocellulose filters were blocked with 0.5% DNA blocking reagent (Boehringer) in 0.1 M maleic acid, 150 mM NaCl, pH7.5.
After 0.5-1 hr, the filters were washed in PBS, 0.05% Tween 20 (Sigma) and incubated with Strepcavidin-HRPO (Southern Biotechnology) in a 1:10.000 dilution. Biotinylated peptides were detected by enhanced chemiluminescence using a Western Blot ECL kit (Amersham). Exposure of the preflashed films (Hyperfilm-ECL, Amersham) was for 10 min. The spots were analysed by scanning the films and using Image Quant/Excel software for analysis.
The affinity of a given peptide for binding DRB1*0401-encoded molecules was related to competition with the marker peptide. This relative binding affinity was defined as the peptide concentration at which the signal was reduced to 50% (IC50).

Test [2] relates to PBMC from RA patients carrying the DR4 (DRB1*0401) specificity. The test can be described thus: Peptide-induced proliferative responses of PBMC from RA patients. Format: cell-based, human. The following applies: 100 and 10 microgram/ml, 7 days, 3H-thymidine incorporation; for Peptide-induced proliferative response of PBMC, RA 286: RA patient 286, 0401, R; for Peptide-induced proliferative response of PBMC, RA 191: RA patient 191, 0401, R. The method, then: This study included 7 DR4(DRB1*0401)-positive patients diagnosed as suffering from RA according to the ARA criteria (Arnett et al., (1988), Arthritis Rheum. 31, 315). Peripheral blood samples were obtained with informed consent. There were five women and two men aged 46-79 years. Their duration of disease ranged from over 10 to over 30 years. Three out of 7 patients had at least 3 swollen joints. […] All patients were on medication: Four patients were treated with prednisone, three patients received anti-rheumatic agents and 4 patients were treated with NSAID's as well.
In order to identify T-cell epitopes within HC gp-39, 59 peptides of 16 AA in length, overlapping by 10 AA were tested for their capacity to induce a proliferative response in PBMC from RA patients and healthy controls carrying the DR4 (DRB1*0401) specificity (Table 1).
PBMC obtained from heparinized venous peripheral blood were isolated by standard centrifugation on a Ficoll-Paque gradient. Cells were cultured in four-fold at a concentration of 1,5×10^5 cells/well in medium supplemented with 10% heat-inactivated, autologous plasma, L-glutamine, 2-ME and antibiotics in flatbottomed microtiter plates. Cells were incubated in medium alone or in the presence of phytohaemagglutinin (PHA) (2:5 μg/ml) to assert cell viability, or in the presence of 10 or 100 μg/ml of the HC gp-39-derived peptides. In several cases, sets of 2 or 3 sequential peptides were tested due to limited PBMC numbers of individual donors. Cultures were incubated in a total volume of 210 μl for 7 days at […] in a humidified atmosphere of 5% CO2. Cultures were pulsed during the last 18 hours with 0.25 μCi ^3H-thymidine ([^3H]TdR). Cells were harvested on glassfiber filters and [^3H] TdR incorporation was measured by gas scintillation (Packard Matrix 96 βcounter). Only peptides inducing a proliferative response at both 10 and 100 μg/ml were considered to contain a T-cell epitope. Responses were defined positive if stimulation index values (SI, antigen-specific counts per 5 min (cp5 m)/background cp5 m) exceeded or equaled 2.
T-cell reactivity to HC gp-39-derived peptide as analyzed by measuring the PBMC proliferative response in DR4 (DRB1*0401)-positive RA patients and healthy donors. Proliferative responses were tested in autologous plasma. In Table IIIA and IIIB the results of 7 experiments are presented showing the responses of RA patients (Table IIIA) and the responses of healthy donors (Table IIIB) to 59 overlapping sequences derived from HC gp-39.

Test [3] has as its target T2, DR4 (DRB1*0401) molecules purified from the homozygous EBV-transformed human B lymphoblastoid cell line … (human, UniProt P01903 26-254).
T2 construct: mature; That form is inferred from purification of the native complex
The test can be described thus: competition binding assay on purified DR4(DRB1*0401).

We go through 29 molecules from patent publication US6881824B1, “Peptides suitable for use in antigen specific immunosuppressive therapy” (Akzo Nobel N.V., priority 1996, dated 2005).

Usually IC50 stands for the concentration at which inhibition is half-maximal.

Ends that are not written are not given here.

Consider “DFQGSFCGQDLRFPLT [compound 57, DFQGSFCGQDLRFPLT]”, for which, in test [1], the “Relative affinity of binding to DR4 (DRB1*0401), in words” value (“Relative affinity of binding to DR4” for short) is given as “high to intermediate relative affinity” and the IC50 lay within 1 to 10 µM.
Regarding “DIAKISQHLDFISIMT [compound 29, DIAKISQHLDFISIMT]”, in test [1], the “Relative affinity of binding to DR4” value was “high to intermediate relative affinity” and the IC50 was less than 1 µM. For the same molecule, in test [2] (RA patient 259, 0401, R), the “Peptide-induced proliferative response of PBMC, RA 259” value was “pos (positive responses to both 100 and 10 microgram/ml of peptide or sets of peptides (SI≧2 were regarded positive))”.
Turning to “DLAWLYPGRRDKQHFT [peptide 20, DLAWLYPGRRDKQHFT]”, in test [1], the “Relative affinity of binding to DR4” value is given as “poor relative affinity” and the IC50 was 100 to 1000 µM. The “Peptide-induced proliferative response of PBMC, RA 286” value in test [2] is “pos (positive responses to both 100 and 10 microgram/ml of peptide or sets of peptides (SI≧2 were regarded positive))”.
On to “EICDFLRGATVHRTLG [compound 47, EICDFLRGATVHRTLG]”, for which, in test [1], the “Relative affinity of binding to DR4” value was “high to intermediate relative affinity” and the IC50 is less than 1 µM. Also, the “Peptide-induced proliferative response of PBMC, RA 191” value in test [2] was “pos (positive responses to both 100 and 10 microgram/ml of peptide or sets of peptides (SI≧2 were regarded positive))”.
As to “GTLAYYEICDFLRGAT [compound 46, GTLAYYEICDFLRGAT]”, in test [1], the “Relative affinity of binding to DR4” value is recorded as “high to intermediate relative affinity” and the IC50 was less than 1 µM.
On the same counts, the results for “HGFDGLDLAWLYPGRR [compound 19, HGFDGLDLAWLYPGRR]” are “high to intermediate relative affinity” and 10 to 100 µM.
“NTQSRRTFIKSVPPFL [compound 16, NTQSRRTFIKSVPPFL]”: in test [1], the “Relative affinity of binding to DR4” value was “high to intermediate relative affinity” and the IC50 was less than 1 µM. For the same molecule, in test [2], the “Peptide-induced proliferative response of PBMC, RA 286” value is “pos (positive responses to both 100 and 10 microgram/ml of peptide or sets of peptides (SI≧2 were regarded positive))”.
In the case of “PASKLVMGIPTFGRSF [compound 39, PASKLVMGIPTFGRSF]”, in test [1], the “Relative affinity of binding to DR4” value is “high to intermediate relative affinity” and the IC50 is 1 to 10 µM.
As to “PPFLRTHGFDGLDLAW [compound 18, PPFLRTHGFDGLDLAW]”, in test [1], the “Relative affinity of binding to DR4” value is reported as “high to intermediate relative affinity” and the IC50 lay within 10 to 100 µM. Moreover, the “Peptide-induced proliferative response of PBMC, RA 276” value in test [2] (RA patient 276, 0401, R) was “pos (positive responses to both 100 and 10 microgram/ml of peptide or sets of peptides (SI≧2 were regarded positive))”.
As to “RGATVHRTLGQQVPYA [compound 48, RGATVHRTLGQQVPYA]”, in test [1], the “Relative affinity of binding to DR4” value is on record as “high to intermediate relative affinity” and the IC50 was 10 to 100 µM.
For “TFIKSVPPFLRTHGFD [compound 17, TFIKSVPPFLRTHGFD]”, in that order: “high to intermediate relative affinity” and 1 to 10 µM.
On the same counts, the results for “TIDSSYDIAKISQHLD [compound 28, TIDSSYDIAKISQHLD]” are “high to intermediate relative affinity” and less than 1 µM.
In the case of “VKSKVQYLKDRQLAGA [compound 53, VKSKVQYLKDRQLAGA]”, in test [1], the “Relative affinity of binding to DR4” value is recorded as “high to intermediate relative affinity” and the IC50 is less than 1 µM.
Turning to “WALDLDDFQGSFCGQD [compound 56, WALDLDDFQGSFCGQD]”, in test [1], the “Relative affinity of binding to DR4” value is “high to intermediate relative affinity” and the IC50 was less than 1 µM. Moreover, in test [2], the “Peptide-induced proliferative response of PBMC, RA 191” value is “pos (positive responses to both 100 and 10 microgram/ml of peptide or sets of peptides (SI≧2 were regarded positive))”; the “Peptide-induced proliferative response of PBMC, RA 286” value was “pos (positive responses to both 100 and 10 microgram/ml of peptide or sets of peptides (SI≧2 were regarded positive))”.
For the molecule “YREGDGSCFPDALDRF [peptide 3, YREGDGSCFPDALDRF]”, in test [1], the “Relative affinity of binding to DR4” value was “high to intermediate relative affinity” and the IC50 is 10 to 100 µM.

B1: HC gp-39 peptide 55 (residues 346-361) (peptide)
peptide: LAGAMVWALDLDDFQG
Turning to B1, the binding result in test [3] is given as “binds”.

B2: HC gp-39 peptide 41 (residues 262-277) (peptide)
peptide: GRSFTLASSETGVGAP
For B2, in test [3], the binding result is “binds”.

B3: HC gp-39 peptide 40 (residues 256-271) (peptide)
peptide: MGIPTFGRSFTLASSE
On to B3, for which the binding result in test [3] is recorded as “binds”.

B4: HC gp-39 peptide 3 (residues 34-49) (peptide)
peptide: YREGDGSCFPDALDRF
Take B4: in test [3], the binding result was “binds”.

B5: HC gp-39 peptide 19 (residues 130-145) (peptide)
peptide: HGFDGLDLAWLYPGRR
Take B5: in test [3], the binding result is “binds”.

B6: HC gp-39 peptide 38 (residues 244-259) (peptide)
peptide: MLRLGAPASKLVMGIP
B6: in test [3], the binding result is given as “binds”.

B7: HC gp-39 peptide 34 (residues 220-235) (peptide)
peptide: SPLFRGQEDASPDRFS
Regarding B7, the binding result in test [3] is “binds”.

B8: HC gp-39 peptide 28 (residues 184-199) (peptide)
peptide: TIDSSYDIAKISQHLD
Consider B8, for which, in test [3], the binding result is given as “binds”.

B9: HC gp-39 peptide 2 (residues 28-43) (peptide)
peptide: YTSWSQYREGDGSCFP
Regarding B9, the binding result in test [3] was “binds”.

B10: HC gp-39 peptide 29 (residues 190-205) (peptide)
peptide: DIAKISQHLDFISIMT
Take B10: in test [3], the binding result is “binds”.

B11: HC gp-39 peptide 16 (residues 112-127) (peptide)
peptide: NTQSRRTFIKSVPPFL
B11: the binding result in test [3] is on record as “binds”.

B12: HC gp-39 peptide 20 (residues 136-151) (peptide)
peptide: DLAWLYPGRRDKQHFT
As to B12, the binding result in test [3] is given as “binds”.

B13: HC gp-39 peptide 18 (residues 124-139) (peptide)
peptide: PPFLRTHGFDGLDLAW
For B13, the binding result in test [3] was “binds”.

B14: HC gp-39 peptide 12 (residues 88-103) (peptide)
peptide: PNLKTLLSVGGWNFGS
For B14, the binding result in test [3] is on record as “binds”.
